Measurements published in the supplement of paper PMC10307832.

Legend:
Test in all cases: relative viability (nuclei count vs DMSO), 5 days (fraction); higher = more cells survive
Axitinib + Tozasertib = compound: CNC(=O)c1ccccc1Sc1ccc2c(/C=C/c3ccccn3)n[nH]c2c1 [Axitinib] + Cc1cc(Nc2cc(N3CCN(C)CC3)nc(Sc3ccc(NC(=O)C4CC4)cc3)n2)n[nH]1 [Tozasertib] (partner 0.1 µM)
Procedure, shortened: (§1)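 After 5 days of treatment, lung cancer cells in 1536-well plates were fixed and stained in a single step (final 0.05% Triton X-100, 1% formaldehyde, 1 ug/ml Hoechst) and their nuclei counted on 4× images. Treatment had been applied by pin tool the day after seeding as one drug alone or as a fixed anchor-drug dose with five library-drug doses (not always all listed) in √10 steps. Relative viability is the nuclei count of treated wells divided by that of vehicle wells, and values are medians of duplicate plates.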

Bemcentinib + Pemetrexed = compound: Nc1nc(Nc2ccc3c(c2)CC[C@@H](N2CCCC2)CC3)nn1-c1cc2c(nn1)-c1ccccc1CCC2 [Bemcentinib] + Nc1nc2[nH]cc(CCc3ccc(C(=O)N[C@@H](CCC(=O)O)C(=O)O)cc3)c2c(=O)[nH]1 [Pemetrexed] (partner 0.2 µM)
Procedure, shortened: as §1

Axitinib + Bortezomib = compound: CNC(=O)c1ccccc1Sc1ccc2c(/C=C/c3ccccn3)n[nH]c2c1 [Axitinib] + CC(C)C[C@H](NC(=O)[C@H](Cc1ccccc1)NC(=O)c1cnccn1)B(O)O [Bortezomib] (partner 0.002 µM)
Procedure, shortened: as §1

Bemcentinib + Navitoclax = compound: Nc1nc(Nc2ccc3c(c2)CC[C@@H](N2CCCC2)CC3)nn1-c1cc2c(nn1)-c1ccccc1CCC2 [Bemcentinib] + CC1(C)CCC(c2ccc(Cl)cc2)=C(CN2CCN(c3ccc(C(=O)NS(=O)(=O)c4ccc(N[C@H](CCN5CCOCC5)CSc5ccccc5)c(S(=O)(=O)C(F)(F)F)c4)cc3)CC2)C1 [Navitoclax] (partner 0.5 µM)
Procedure, shortened: as §1

Row | Cell Line | relative viability (Axitinib + Tozasertib; first compound 0.005 µM) | relative viability (Axitinib + Tozasertib; first compound 0.01581 µM) | relative viability (Axitinib + Tozasertib; first compound 0.05 µM) | relative viability (Axitinib + Tozasertib; first compound 0.1581 µM) | relative viability (Axitinib + Tozasertib; first compound 0.5 µM) | relative viability (Bemcentinib + Pemetrexed; first compound 0.04 µM) | relative viability (Bemcentinib + Pemetrexed; first compound 0.1265 µM) | relative viability (Bemcentinib + Pemetrexed; first compound 0.4 µM) | relative viability (Bemcentinib + Pemetrexed; first compound 1.265 µM) | relative viability (Bemcentinib + Pemetrexed; first compound 4 µM) | relative viability (Axitinib + Bortezomib; first compound 0.005 µM) | relative viability (Axitinib + Bortezomib; first compound 0.01581 µM) | relative viability (Axitinib + Bortezomib; first compound 0.05 µM) | relative viability (Axitinib + Bortezomib; first compound 0.1581 µM) | relative viability (Axitinib + Bortezomib; first compound 0.5 µM) | relative viability (Bemcentinib + Navitoclax; first compound 0.04 µM) | relative viability (Bemcentinib + Navitoclax; first compound 0.1265 µM) | relative viability (Bemcentinib + Navitoclax; first compound 0.4 µM) | relative viability (Bemcentinib + Navitoclax; first compound 1.265 µM) | relative viability (Bemcentinib + Navitoclax; first compound 4 µM)
1 | LCLC-103H | 0.52 | 0.551 | 0.432 | 0.52 | 0.519 | 0.422 | 0.478 | 0.428 | 0.455 | 0.434 | 1.07 | 1.07 | 1.18 | 1.03 | 1.07 | – | – | – | – | –
2 | NCI-H520 | 0.401 | – | 0.439 | 0.417 | 0.347 | 0.65 | 0.848 | 0.788 | 0.686 | 0.785 | 0.685 | 0.698 | 0.474 | 0.5 | 0.705 | 1.19 | 1.19 | 1.42 | 1.11 | 1.07
3 | NCI-H1975 | 0.79 | 0.819 | 0.719 | 0.875 | 0.867 | 0.307 | 0.362 | 0.301 | 0.283 | 0.299 | 0.404 | 0.357 | 0.397 | 0.394 | 0.463 | 1.03 | 1.23 | 1.12 | 1.05 | 1.2
4 | NCI-H1355 | 0.679 | 0.587 | 0.544 | 0.54 | 0.617 | 1.06 | 1.16 | 1.13 | 1.03 | 1.04 | 1.26 | 1.13 | 1.32 | 1.17 | 1.15 | 0.947 | 0.943 | 1.08 | 0.941 | 0.976
5 | IA-LM | – | – | – | – | – | – | – | – | – | – | 1.17 | 0.775 | 0.899 | 0.846 | 0.728 | 0.748 | 0.988 | 0.975 | 0.841 | 0.725
6 | H3255 | 0.721 | 0.642 | 0.589 | 0.541 | 1.2 | 0.533 | 0.616 | 0.585 | 0.624 | 0.517 | 0.672 | 0.778 | 0.856 | 0.962 | 0.6 | 0.397 | 0.581 | 0.67 | 0.325 | 0.506
7 | SK-MES-1 | 0.996 | 0.904 | 0.818 | 0.947 | 1.07 | 0.958 | 1.1 | 0.987 | 1.03 | 0.967 | – | – | – | – | – | 1.25 | 1.22 | 1.36 | 1.49 | 1.47
8 | NCI-H2170 | 0.72 | 0.63 | 0.768 | 0.774 | 0.838 | 0.264 | 0.278 | 0.283 | 0.244 | 0.264 | – | – | – | – | – | 0.701 | 0.636 | 0.627 | 0.675 | 0.638
9 | NCI-H1792 | – | – | – | – | – | 0.918 | 0.988 | 1.06 | 0.68 | 0.85 | 1 | 0.982 | 0.952 | 0.953 | 0.894 | 0.668 | 0.57 | 0.859 | 0.697 | 0.665
10 | NCI-H661 | 0.351 | 0.363 | 0.363 | 0.359 | 0.371 | 0.906 | 0.953 | 0.965 | 0.899 | 0.991 | 0.93 | 0.83 | 0.648 | 0.785 | 0.842 | – | – | – | – | –
11 | NCI-H1648 | 0.506 | 0.643 | – | 0.483 | 0.602 | 0.717 | 0.761 | 0.818 | 0.697 | 0.841 | – | – | – | – | – | – | – | – | – | –
12 | LK-2 | 0.176 | 0.161 | 0.198 | 0.162 | 0.174 | 0.246 | 0.323 | 0.294 | 0.256 | 0.294 | – | – | – | – | – | 0.755 | 0.903 | 0.994 | 0.904 | 0.904
13 | NCI-H1395 | 0.739 | 0.883 | 0.725 | 0.682 | 0.764 | – | 1.03 | 0.903 | 0.797 | 0.82 | – | – | – | – | – | 1.11 | 1.35 | 1.05 | 1.23 | 1.19
14 | NCI-H727 | 0.543 | 0.628 | 0.625 | 0.674 | 0.746 | – | – | – | – | – | 1.1 | 0.854 | 1 | 0.868 | 0.795 | 0.348 | 0.389 | 0.435 | 0.382 | 0.522
15 | NCI-H358 | 0.105 | 0.0955 | 0.105 | 0.101 | 0.108 | 0.176 | 0.177 | 0.166 | 0.187 | 0.179 | – | – | – | – | – | – | – | – | – | –
16 | Calu-6 | – | – | – | – | – | – | – | – | – | – | 1.11 | 0.944 | 0.956 | 1.1 | 0.996 | 0.856 | 0.856 | 1.01 | 0.871 | 0.973
17 | NCI-H1563 | – | – | – | – | – | 0.768 | 0.716 | 0.844 | 0.663 | 0.772 | 0.908 | 0.827 | 0.846 | 0.876 | 0.763 | – | – | – | – | –
18 | EBC-1 | – | – | – | – | – | – | – | – | – | – | 0.631 | 0.657 | 0.521 | 0.565 | 0.629 | 0.377 | 0.404 | 0.431 | 0.394 | 0.422
19 | NCI-H1703 | – | – | – | – | – | – | – | – | – | – | 0.353 | 0.228 | 0.161 | 0.212 | 0.207 | 1.08 | 1.03 | 1.34 | 1.04 | 0.85
20 | SW 900 | 0.84 | 0.572 | 0.571 | 0.639 | 0.642 | 0.492 | 0.541 | 0.485 | 0.433 | 0.48 | – | – | – | – | – | – | – | – | – | –
21 | NCI-H1299 | – | – | – | – | – | – | – | – | – | – | 1.05 | 0.989 | 1.07 | 0.976 | 1.06 | 1.02 | 1.04 | 1.05 | 1.04 | 1
22 | NCI-H522 | 0.662 | 0.573 | 0.46 | 0.575 | 0.577 | 1.03 | 0.908 | 0.897 | 1.04 | 1.18 | – | – | – | – | – | – | – | – | – | –
23 | A549 | – | – | – | – | – | – | – | – | – | – | – | – | – | – | – | 1.2 | 1.27 | 1.32 | 1.29 | 1.2
